In one assay the test system is Pyricularia oryzae. It is filed as cell-based.
In assay [1] the test system is Plasmopara viticola. As to the kind of experiment: Use Example 1: peronospora of grapevines, greenhouse, 7 days of protective application. It counts as in vivo. The settings on record: grapevine leaves sprayed 7 days before inoculation. The method, then: The active compounds were prepared jointly or separately as a stock solution with 25 mg of active compound which was made up to 10 ml using a mixture of acetone and/or DMSO and the emulsifier Uniperol® EL (wetting agent having emulsifying and dispersing action based on ethoxylated alkylphenols) in a volume ratio of solvent/emulsifier of 99 to 1. The mixture was then made up with water to 100 ml. This stock solution was diluted with the solvent/emulsifier/water mixture described to the concentration of active compounds stated below.
The active compounds pyraclostrobin, famoxadone, fluazinam and zoxamide were used as commercially available formulations.
The visually determined percentages of infected leaf areas were converted into efficacies in % of the untreated control:
The efficacy (E) is calculated as follows using Abbot's formula:
An efficacy of 0 means that the infection level of the treated plants corresponds to that of the untreated control plants; an efficacy of 100 means that the treated plants were not infected.
The expected efficacies of mixtures of active compounds were determined using Colby's formula (Colby, S. R. “Calculating synergistic and antagonistic responses of herbicide combinations”, Weeds, 15, 20-22, 1967) and compared with the observed efficacies.
E=x+y−x·y/100 • E expected efficacy, expressed in % of the untreated control, when using the mixture of the active compounds A and B at the concentrations a and b • x efficacy, expressed in % of the untreated control, when using the active compound A at the concentration a • y efficacy, expressed in % of the untreated control, when using the active compound B at the concentration b
Effectiveness Against Peronospora of Grapevines Caused by Plasmopara viticola at 7 days of Protective Application
Leaves of potted vines were sprayed to runoff point with an aqueous suspension having the concentration of active compound given below. To be able to assess the persistency of the substances, the plants were, after the spray coating had dried on, placed in a greenhouse for 7 days. Only then were the leaves inoculated with an aqueous zoospore suspension of Plasmopara viticola. The grapevines were then initially placed in a water-vapor-saturated chamber at 24° C. for 48 hours and then in a greenhouse at temperatures between 20 and 30° C. for 5 days. After this period of time the plants were, to promote sporangiophore eruption, again placed in a humid chamber for 16 hours. The extent of the development of the infection on the undersides of the leaves was then determined visually.

A further assay deals with Botrytis cinerea. As to the kind of experiment: Use Example 4: gray mold, microtiter test. It is filed as cell-based. The settings on record: day 7 after inoculation, 405 nm.
The subject of another assay is Phytophthora infestans. It counts as in vivo. The settings on record: tomato leaves sprayed 3 days before inoculation, rated after 6 days.
The subject of the next assay is Septoria tritici. Briefly: Use Example 6: Septoria speckled leaf blotch, microtiter test. It counts as cell-based. The settings on record: day 7 after inoculation, 405 nm.
In assay [2] the test system is Plasmopara viticola. It counts as in vivo.

Read-outs that look alike come from different tables or passages of the source.

Experimental findings from patent US20080200334A1, “Method For Enhancing The Effectiveness Of Ethaboxam” (BASF Aktiengesellschaft, priority 2004, published 2008) are described below.

Take `CC1(c2ccc(Oc3ccccc3)cc2)OC(=O)N(Nc2ccccc2)C1=O` (racemic) [famoxadone II-11, (RS)-3-anilino-5-methyl-5-(4-phenoxyphenyl)-1,3-oxazolidine-2,4-dione]: in the assay on Pyricularia oryzae (0.5 ppm), the “Observed effect (%)” value is on record as 64%.
Turning to `CCNC(=O)NC(=O)/C(C#N)=N/OC` [cymoxanil II-3, cymoxanil], in the assay on Plasmopara viticola [1] (4 ppm), the “Observed effect (%)” value was 0%.
For the molecule `COc1ccc(C(=CC(=O)N2CCOCC2)c2ccc(Cl)cc2)cc1OC` [dimethomorph II-2, 3-(4-chlorophenyl)-3-(3,4-dimethoxyphenyl)-1-morpholin-4-ylpropenone], the “Observed effect (%)” value with Plasmopara viticola [1] (4 ppm) was determined as 0%; with Pyricularia oryzae (4 ppm) it was 6%; with Botrytis cinerea (63 ppm), 9%; in the assay on Phytophthora infestans (4 ppm), 0%; with Phytophthora infestans (16 ppm) it was 22%.
For the molecule `N#Cc1sc2c(=O)c3ccccc3c(=O)c=2sc1C#N` [dithianon II-15, 5,10-dioxo-5,10-dihydronaphtho[2,3-b][1,4]dithiin-2,3-dicarbonitrile], the “Observed effect (%)” value in the assay on Septoria tritici (0.125 ppm) is reported as 35%.
`CCNc1nc(CC)c(C(=O)NC(C#N)c2cccs2)s1` (centres unmarked) [ethaboxam I, N-(cyano-2-thienylmethyl)-4-ethyl-2-(ethylamino)-5-thiazolecarboxamide]: the “Observed effect (%)” value in the assay on Plasmopara viticola [2] (1 ppm) was found to be 61%; in the assay with Plasmopara viticola [1] (1 ppm), 0%; in the assay with Plasmopara viticola [1] (4 ppm), 22%; in the assay on Plasmopara viticola [1] (16 ppm) it was 44%; in the assay on Pyricularia oryzae (0.125 ppm) it was 0%; with Pyricularia oryzae (0.25 ppm) it was 0%. Also, the “Observed effect (%)” value stood at 18% with Pyricularia oryzae (8 ppm); 41% in the assay on Pyricularia oryzae (16 ppm); 56% in the assay with Pyricularia oryzae (63 ppm); 0% with Botrytis cinerea (1 ppm); 0% in the assay on Botrytis cinerea (2 ppm); 0% in the assay on Botrytis cinerea (4 ppm). Besides, the “Observed effect (%)” value in the assay on Botrytis cinerea (32 ppm) turned out to be 0%; with Botrytis cinerea (63 ppm), 11%; in the assay with Phytophthora infestans (16 ppm) it was 33%; in the assay with Septoria tritici (0.125 ppm), 0%; with Septoria tritici (4 ppm), 0%; in the assay with Septoria tritici (16 ppm), 0%.
As to `O=[N+]([O-])c1cc(C(F)(F)F)c(Cl)c([N+](=O)[O-])c1Nc1ncc(C(F)(F)F)cc1Cl` [fluazinam II-4, 3-chloro-N-[3-chloro-2,6-dinitro-4-(trifluoromethyl)phenyl]-5-(trifluoromethyl)-2-pyridinamine], in the assay with Plasmopara viticola [1] (63 ppm), the “Observed effect (%)” value came out at 22%.
As to `COc1ccc(C(=CC(=O)N2CCOCC2)c2ccc(F)cc2)cc1OC` [flumorph II-8, 3-(4-fluorophenyl)-3-(3,4-dimethoxyphenyl)-1-morpholin-4-ylpropenone], the “Observed effect (%)” value turned out to be 11% in the assay with Pyricularia oryzae (16 ppm) and 16% in the assay with Botrytis cinerea (63 ppm).
With `O=C1c2ccccc2C(=O)N1SC(Cl)(Cl)Cl` [folpet II-10, folpet], the “Observed effect (%)” value in the assay on Pyricularia oryzae (1 ppm) turned out to be 20%; in the assay on Botrytis cinerea (1 ppm), 38%; in the assay on Septoria tritici (4 ppm), 54%.
In the case of `COC(=O)N(OC)c1ccccc1COc1ccn(-c2ccc(Cl)cc2)n1` [pyraclostrobin II-6, methyl N-{2-[1-(4-chlorophenyl)-1H-pyrazol-3-yloxymethyl]phenyl}(N-methoxy)carbamate], the “Observed effect (%)” value in the assay with Botrytis cinerea (0.5 ppm) was 22%.
Regarding “ethyl phosphonate aluminum [fosethyl-Al II-12]”, the “Observed effect (%)” value in the assay with Pyricularia oryzae is 8%.
Turning to “manganese ethylenebis(dithiocarbamate) [maneb II-5]”, the “Observed effect (%)” value in the assay on Plasmopara viticola [2] (in vivo) was found to be 0%.
As for “manganese ethylenebis(dithiocarbamate) zinc complex [mancozeb II-9]”, the “Observed effect (%)” value in the assay with Botrytis cinerea (4 ppm) is 30%; in the assay on Septoria tritici (1 ppm), 29%.
Regarding “zinc ammoniate ethylenebis(dithiocarbamate) [metiram II-14]”, in the assay with Septoria tritici (4 ppm), the “Observed effect (%)” value was 19%.
